The test addresses T1, Full length Human HDAC6 (Homo sapiens, UniProt Q9UBN7).
T1 construct: Full length Human HDAC6; FLAG (C); host or cells: baculovirus expression system
T1 sequence (Q9UBN7 1-1215): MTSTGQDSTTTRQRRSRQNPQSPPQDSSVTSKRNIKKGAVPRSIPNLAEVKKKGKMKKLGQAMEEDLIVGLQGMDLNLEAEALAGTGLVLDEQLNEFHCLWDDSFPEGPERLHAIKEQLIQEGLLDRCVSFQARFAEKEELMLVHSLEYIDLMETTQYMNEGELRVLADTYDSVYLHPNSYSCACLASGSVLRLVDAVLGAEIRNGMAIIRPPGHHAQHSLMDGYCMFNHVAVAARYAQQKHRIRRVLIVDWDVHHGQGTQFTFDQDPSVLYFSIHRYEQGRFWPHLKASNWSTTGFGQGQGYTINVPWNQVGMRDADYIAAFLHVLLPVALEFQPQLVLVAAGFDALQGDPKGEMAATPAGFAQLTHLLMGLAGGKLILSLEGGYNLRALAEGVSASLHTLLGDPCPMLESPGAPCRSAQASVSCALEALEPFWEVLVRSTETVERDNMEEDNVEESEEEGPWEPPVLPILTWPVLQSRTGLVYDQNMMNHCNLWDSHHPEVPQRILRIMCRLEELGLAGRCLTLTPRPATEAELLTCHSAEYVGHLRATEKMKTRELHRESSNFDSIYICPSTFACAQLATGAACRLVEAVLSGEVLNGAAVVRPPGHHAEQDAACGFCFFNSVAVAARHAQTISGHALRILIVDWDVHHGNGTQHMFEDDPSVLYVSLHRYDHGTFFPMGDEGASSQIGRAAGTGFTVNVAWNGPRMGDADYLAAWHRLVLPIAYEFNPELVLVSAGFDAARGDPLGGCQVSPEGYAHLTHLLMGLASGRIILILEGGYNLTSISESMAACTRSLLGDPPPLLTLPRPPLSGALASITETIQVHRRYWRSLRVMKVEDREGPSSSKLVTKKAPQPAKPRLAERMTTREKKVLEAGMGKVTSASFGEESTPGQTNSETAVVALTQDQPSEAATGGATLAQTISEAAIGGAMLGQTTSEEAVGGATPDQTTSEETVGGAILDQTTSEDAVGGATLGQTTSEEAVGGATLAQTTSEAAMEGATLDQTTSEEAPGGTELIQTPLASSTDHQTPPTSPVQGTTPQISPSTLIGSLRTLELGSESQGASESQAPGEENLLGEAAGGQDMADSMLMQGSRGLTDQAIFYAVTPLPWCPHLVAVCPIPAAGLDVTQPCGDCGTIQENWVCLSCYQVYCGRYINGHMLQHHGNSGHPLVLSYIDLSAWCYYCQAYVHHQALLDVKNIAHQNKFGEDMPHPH
In words: In vitro HDAC6 enzymatic activity (Caliper endpoint assay or Nanosyn fluorogenic format). The settings on record: 30 min pre-incubation with enzyme. The test is classed as biochemical.

SMILES strings stand for the structures.

On to `FC(F)c1nnc(-c2ccc(COc3ccc4cccnc4c3)nc2)o1` [Compound 34, 2-(difluoromethyl)-5-[6-(7-quinolyloxymethyl)-3-pyridyl]-1,3,4-oxadiazole], for which the IC50 lay in the range of 1 to 100 nM.
Next, `FC(F)c1nnc(-c2ccc(COc3cccc4ncccc34)nc2)o1` [Compound 63, 2-(difluoromethyl)-5-[6-(5-quinolyloxymethyl)-3-pyridyl]-1,3,4-oxadiazole]: 1 to 100 nM.

The IC50 is the midpoint of a concentration-inhibition curve. A lower IC50 goes with greater potency in that assay.

The record behind these values is patent US20250230166A1, “OXADIAZOLE HDAC6 INHIBITORS AND USES THEREOF” (Eikonizo Therapeutics, Inc., priority 2022, published 2025).
